A word on the % Inhibition: it is the share of the control response that was lost under treatment. A low value points to a response near the control.

For one experiment, the system named is human keratinocytes. Nature of the experiment: Cell protection against UV-B rays (cellular DNA, LDH release). It is filed as cell-based. To be noted: UV-B 50 mJ/cm^2, conc. 0.01 % w/v. As for the experimental part: UV-B was selected as the stress factor because the rays produce cutaneous inflammation ([…]) by activating enzymes that release arachidonic acid, such as phospholipase A2 (PLA2) for example. […] The influence of UV-B rays on keratinocytes was determined in vitro through the release of cytoplasmatic enzymes, such as LDH (lactate dehydrogenase) for example, which runs parallel to the cell damage and the formation of PGE2. To carry out the test, a fibroblast culture was mixed with foetal calf serum and inoculated with the test substances 2 days later. After incubation for 36 h at 37° C. and a CO2 level of 5% by vol., the nutrient medium was replaced by an electrolyte solution and the fibroblasts were damaged with a particular dose of UV-B (50 mJ/cm^2). The quantity of keratinocytes was determined after trypsination via a cell counter while the LDH concentration was enzymatically determined.
Background: LDH leaks from cells whose membrane has failed.

The test system of experiment [1] is superoxide anions O2° produced by lipoxygenase. Nature of the experiment: Anti-free radical test with superoxide anions produced by lipoxygenase. It is filed as biochemical. How it is done:
Activity against free radicals was determined by a biochemical test with a reactive oxygen species (ROS), the so-called superoxide anion (O2°). Superoxide anions come from xanthine oxidase and lipoxygenase activities. Xanthine oxidase (XOD) is an enzyme which is activated during oxidative stress and catalyzes the release of O2° during the degradation of hypoxanthine (HX) which is produced in excess in the event of a disturbance to the energy cell metabolism. O2° is then reacted spontaneously or by superoxide dismutase (SOD) to form hydrogen peroxide (H2O2) which in turn is a source of HO radicals which continue reacting in the Fenton reaction. O2° released during an inflammation process is formed from arachidonic acid by the lipoxygenase activity of leucocytes during the leucotriene synthesis (MacCord, M., Chabot Fletcher, M., Breton, J., Marshall, L.A.; Journal of Investigative Dermatology, 1994, Vol. 102, pp. 980-986; Bouclier, M., Hensby C.N.; Annales de Dermatologie & de V{acute over (en)}reologie, 1986, Vol. 113, pp. 1289-1293).
The enzymatic system arachidonic acidlipoxygenase leads during the synthesis of leucotrienes to the formation of O2° which can be determined by luminescence via luminol. Activity against free radicals is greater, the more the luminescence is suppressed.

The test system of experiment [2] is G6PDH (glucose 6 phosphate dehydrogenase). Nature of the experiment: G6PDH activity on human dermal fibroblasts. It is filed as cell-based. To be noted: control = 100, 8 assays. The text has this:
This test was used to determine stimulation of the enzyme G6PDH (glucose 6 phosphate dehydrogenase) which counteracts the ageing process of human skin. G6PDH catalyzes the first step of the “pentose shunt” (also known as hexose monophosphate shunt or HMP shunt). The first step, the transformation of glucose-6-phosphate (G6P) into 6-phosphogluconate (6GP) by G6PDH, needs the coenzyme NADP which in turn is converted into NADPH2. This reduced form of the coenzyme catalyzes many enzymatic reactions and also glutathione recycling and lipid synthesis.
Determination of the G6PDH activity (glucose 6 phosphate dehydrogenase) was carried out by the microprocess described by Garidelli de Quincenet in Annual Dermatol. Venereol. 107 (12), 1163-1170 (1980). The DNA content was determined by the method described by Desaulniers in Toxic. In vitro 12 (4), 409-422 (1998) using in vitro cultures of human dermal fibroblasts. […]

With `O=C1O[C@H]([C@@H](O)CO)C(O)=C1O` [ascorbic acid], the LDH released with human keratinocytes (blank with UV-B = 100) was determined as 50 %-rel. Also, the “Cellular DNA” value in the experiment on human keratinocytes (blank without UV-B = 100, blank with UV-B = 29) was determined as 48 %-rel.
For `O=C(O)/C=C/c1ccc(O)c(O)c1` [Caffeic acid], the figures for the “% Inhibition” value in experiment [1] (concentration 0.00002 % w/v) and in experiment [1] (concentration 0.0002 % w/v) were 16% and 54%, respectively.
For `CC1=C(/C=C/C(C)=C/C=C/C(C)=C/C(=O)O)C(C)(C)CCC1` [Retinoic acid], the “Level of G6PDH activity on day 6 (%/against control) Average value” worked out at 120 %/against control in experiment [2] (concentration 0.0003 mM) and 128 %/against control in experiment [2] (concentration 0.001 mM).
